According to patent US20070249634A1, “Triazolopyrimidine Compounds and Use Thereof for Controlling Harmful Fungi” (priority 2004, published 2007):

melting point: 199 to 204 °C
SMILES: CC1CCN(c2c(-c3cc([N+](=O)[O-])ccc3Cl)c(Cl)nc3ncnn23)CC1 [compound 56, 5-chloro-6-(2-chloro-5-nitrophenyl)-7-(4-methylpiperidin-1-yl)-[1,2,4]-triazolo[1,5-a]pyrimidine]
